What was measured:
[1] = biological target: T1, SMYD2 (Homo sapiens (Human), UniProt Q9NRG4); assay: In Cell Western (ICW) cell-based assay for detection of SMYD2 methylation activity; details: SMYD2 overexpressing KYSE-150 cells, 72 h treatment, p53K370me1 signal; read-out: IC50 [mol/l] (ICW assay)
Description: For the detection of SMYD2 cellular methylation activity an In Cell Western (ICW) assay was established. This assay allows rapid processing of multiple samples for SMYD2 methylation derived immunofluorescence signals, with normalization to cell number via the use of the nucleic acid dye DRAQ5. […] To detect SMYD2-mediated methylation signals in cells, a customized antibody directed against mono-methylated lysine 370 on protein p53 (p53K370me1) was used.
For conducting the ICW assay 5000 SMYD2 overexpressing KYSE-150 cells/well were seeded in 96-well plates (SIGMA) and cultivated for 24 h. As a control for maximal inhibition of ectopic methylation activity, non-transfected KYSE-150 cells were used. Cells were grown in 49% RPMI 1640 with 49% Ham's F12 media supplemented with 2% heat inactivated fetal calf serum (FCS). […] After 5 washes with PBS, the fluorescence in each well was measured on an Odyssey (LI-COR) scanner at 800 nm (p53K370me1 signal; 764 nm excitation) and 700 nm (DRAQ5 signal; 683 nm excitation). Fluorescence intensity was quantified and normalized to background and DRAQ5 signals. IC50 values were calculated by fitting the normalized inhibition data to a 4-parameter logistic equation (Minimum, Maximum, IC50, Hill; Y=Max+(Min−Max)/(1+(X/IC50)Hill)) for each tested compound. […] Ci (maximal inhibition) was defined as the signal measured for non SMYD2 overexpressing KYSE150 cells.

[2] = biological target: T1, SMYD2; assay: Scintillation Proximity Assay (SPA) for detection of SMYD2 enzymatic inhibition; assay type: biochemical; details: methylation of biotinylated p53 Peptide, 3H-SAM, full length SMYD2; read-out: IC50 [mol/l] (SPA Assay)
Description: 1.1 Scintillation Proximity Assay (SPA) for Detection of SMYD2 Enzymatic Inhibition
The SMYD2 full length enzyme was produced in-house by expression (with an N-terminal 6×His tag) in E. coli and purification by affinity chromatography on a Ni-NTA Sepharose column followed by a size exclusion chromatography step on a Superdex 200 16/60 column (GE Healthcare).
To this end, 100-fold concentrated compound solutions (in DMSO) were previously prepared by serial dilution (1:3.4) of 2 mM stocks in a clear low volume 384-well source microtiter plate (Greiner Bio-One), from which 50 nl of compound solutions were transferred into a white low volume test microtiter plate from the same supplier. […] The samples were then incubated for 15 min at 22° C. to allow pre-equilibration of the putative enzyme-inhibitor complexes before the start of the methylation reaction, which was initiated by the addition of 2.5 μl 2-fold concentrated solution (in assay buffer) of titrated S-Adenosyl-L-Methionine (3H-SAM, Perkin Elmer, final concentration: 60 nM) and p53 Peptide substrate (final concentration: 1.0 μM). The resulting mixture (5 μl final volume) was shortly centrifuged (2 min., 1500 rpm) and incubated at 22° C. during 30 min. Thereupon the reaction was stopped by adding 3 μl of Streptavidin PS SPA imaging beads (Perkin Elmer, final concentration of 3.12 μg/μl) and “cold” SAM (AK Scientific, 25 μM final concentration) for non-specific binding reduction. Plates containing the stopped reaction were sealed with transparent adhesive foil (Perkin Elmer), centrifuged (2 min., 1500 rpm), and further incubated for—at least—1 h at RT (or overnight at 4° C.) in order to allow the SPA signals to develop. […] IC50 values were calculated by fitting the normalized inhibition data to a 4-parameter logistic equation using the “Screener” analysis software from Genedata.

T1 sequence (Q9NRG4 whole entry): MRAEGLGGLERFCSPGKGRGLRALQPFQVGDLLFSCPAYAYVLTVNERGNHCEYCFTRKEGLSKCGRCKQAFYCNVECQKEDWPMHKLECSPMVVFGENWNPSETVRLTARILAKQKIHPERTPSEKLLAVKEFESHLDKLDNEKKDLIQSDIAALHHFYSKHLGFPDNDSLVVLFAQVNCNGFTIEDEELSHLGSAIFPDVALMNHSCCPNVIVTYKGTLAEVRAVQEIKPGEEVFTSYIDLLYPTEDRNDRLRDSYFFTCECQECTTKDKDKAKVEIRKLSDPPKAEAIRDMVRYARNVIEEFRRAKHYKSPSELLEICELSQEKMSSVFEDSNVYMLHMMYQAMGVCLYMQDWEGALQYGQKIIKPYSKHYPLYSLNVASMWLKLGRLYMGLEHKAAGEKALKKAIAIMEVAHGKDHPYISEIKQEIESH

| IC50 [1] | IC50 [2] | SMILES |
| --- | --- | --- |
| 376 nM | 144 nM | CCN(C(=O)CO)C1CN(/C(=N\C#N)Nc2ccc(Cl)c(OC(F)F)c2)N=C1c1ccc(Cl)c(Cl)c1 (racemic) [Example 11, Rac-N-[1-{N-[4-chloro-3-(difluoromethoxy)phenyl]-N′-cyanocarbamimidoyl}-3-(3,4-dichlorophenyl)-4,5-dihydro-1H-pyrazol-4-yl]-N-ethyl-2-hydroxyacetamide] |
|  | 418 nM | CCN(C(=O)[C@H](N)C(C)C)C1CN(/C(=N\C#N)Nc2cccc(OC(F)(F)F)c2F)N=C1c1ccc(Cl)c(Cl)c1 (stereo partly drawn) [Example 40, N-[1-{N′-Cyano-N-[2-fluoro-3-(trifluoromethoxy)phenyl]carbamimidoyl}-3-(3,4-dichlorophenyl)-4,5-dihydro-1H-pyrazol-4-yl]-N-ethyl-D-valinamide] |
|  | 59.5 nM | CCN(C(=O)CN)C1CN(/C(=N\C#N)Nc2cccc(OCCN(C)C)c2)N=C1c1ccc(Cl)c(Cl)c1 (racemic) [Example 17, Rac-N-[1-(N′-cyano-N-{3-[2-(dimethylamino)ethoxy]phenyl}carbamimidoyl)-3-(3,4-dichlorophenyl)-4,5-dihydro-1H-pyrazol-4-yl]-N-ethylglycinamide] |
